Laboratory results: EP2924045A1, “New agents for the treatment of cancer” (Medizinische Universität Wien, priority 2014, dated 2015)

Columns and labels:
[1] = Stability test in minimal essential medium; type: physicochemical
cell viability = assay: MTT-based cell viability under normoxic and hypoxic conditions; details: 72 h treatment
Method: (§1) Cells were plated (2x10^3 cells/well) in 96-well plates and allowed to recover for 24 h. Subsequently, the dissolved drugs were added. After 72 h exposure, the proportion of viable cells was determined by MTT assay following the manufacturer's recommendations (EZ4U, Biomedica, Vienna, Austria). Cytotoxicity was expressed as IC50 values calculated from full dose-response curves using Graph Pad Prism software.
(§2) Cells were plated in 96- or 6-well plates, respectively, in an HERA cell 150i (Thermo Scientific) with at 1% O2/5% CO2 level for indicated time points (72 h and 4 h for MTT assays and protein isolation, respectively) before analysis/harvesting.
As a first step, the anticancer activity of the novel Co(III) complex was tested in comparison to the metal-free ligand under normoxic and hypoxic conditions as shown in Figures 5 and 6A after 72 h treatment cell viability was measured using a MTT-based system. Values given are means ± standard deviation (SD) of one representative experiment performed in triplicates (Statistical analysis: t-test; ***p< 0.001 ^a: difference between L2 and 1a; ^b: difference between 1a normoxia and 1a hypoxia).

EGFR = assay: Western blot of EGFR inhibition in A431 and Calu3 cells under normoxia and hypoxia; type: cell-based; details: 4 h treatment, EGF 50 ng/ml for 15 min
Method: as §2
Proteins were isolated, resolved by SDS/PAGE, and transferred onto a polyvinylidenedifluoride membrane for Western blotting by routine methods. The following antibodies were used: EGFR, pEGFR (Tyr1068), ERK1/2 (p44/42 MAPK), and pERK (Thr202/Tyr204) (all polyclonal rabbit - Cell Signaling Technology, Beverly, MA, USA). β-actin was monoclonal mouse AC-15 (Sigma). All primary antibodies were used in 1:1000 dilutions. Additionally, horseradish peroxidase-labelled secondary antibodies from Santa Cruz Biotechnology were used at working dilutions of 1:10000.

A431 xenografts = assay: A431 xenograft tumour growth in SCID mice; type: in vivo; details: 5 mg/kg i.v. or 25 mg/kg i.p.; efficacy comparable to erlotinib, especially upon intraperitoneal application
Description: (§3) Six- to 8-week-old female CB-17 scid/scid (SCID) mice were purchased from Harlan Laboratories (San Pietro al Natisone, Italy). The animals were kept in a pathogen-free environment and every procedure was done in a laminar airflow cabinet. The experiments were done according to the regulations of the Ethics Committee for the Care and Use of Laboratory Animals at the Medical University Vienna, The U.S. Public Health Service Policy on Human Care and Use of Laboratory Animals as well as the United Kingdom Coordinating Committee on Cancer Prevention Research's Guidelines for the Welfare of Animals in Experimental Neoplasia.
(§4) This is of interest, as Calu3 xenografts are characterized by a rather specific tumor histology, where small tumour islands are surrounded by murine fibroblasts. Consequently, in these xenografts a larger tumor volume might be necessary for the development of hypoxic conditions and, thus, activation of 1b.

Calu3 xenografts = assay: Calu3 xenograft tumour growth in SCID mice; type: in vivo; details: when a tumour size of more than 200 mm^2 was reached
Description: as §3, §4

A431 = assay: MTT cytotoxicity assay, A431 cells; type: cell-based; details: Homo sapiens, A-431; MTT assay after 72 h treatment; wild-type EGFR-overexpressing erlotinib-sensitive A431; read-out: Inhibition of Cell Growth (IC50 µM) A431
Method: Cell cultures were periodically checked for Mycoplasma contamination.
Subsequently, the dissolved drugs were added. […] Cytotoxicity was expressed as IC50 values calculated from full dose-response curves using Graph Pad Prism software.

H1975 = assay: MTT cytotoxicity assay, H1975 cells; type: cell-based; details: Homo sapiens, NCI-H1975; MTT assay after 72 h treatment; H1975 with resistance-conferring EGFR mutation T790M; read-out: Inhibition of Cell Growth (IC50 µM) H1975
Method: The human NSCLC cell lines A431 (wt EGFR-overexpressing and erlotinib-sensitive) and H1975 (EGFR mutation at L858R as well as T790M and erlotinib-resistant) were purchased from American Type Culture Collection (ATCC), Rockville, MD, USA and cultivated unless otherwise indicated in humidified incubators (37°C, 21% O2, 5% CO2) in RPMI 1640 medium containing 10% fetal calf serum (PAA, Linz Austria). Cell cultures were periodically checked for Mycoplasma contamination.
as §1
(§5) As a first step MTT assays (after 72 h treatment) performed in wild-type EGFR-overexpressing erlotinib-sensitive A431 and Calu3 cells as well as in H1975 cells, which harbour a resistance-conferring EGFR mutation T790M (Table 1). […] Only in Calu3 cells activity in the low µM range was observed. In contrast, L2 containing the smallest chelating moiety had IC50 values in the low µM range in both erlotinib-responsive models. […] Table 1. Anticancer activity (IC50 values)

Calu3 = assay: MTT cytotoxicity assay, Calu3 cells; type: cell-based; details: Homo sapiens, Calu-3; MTT assay after 72 h treatment; wild-type EGFR-overexpressing erlotinib-sensitive Calu3; read-out: Inhibition of Cell Growth (IC50 µM) Calu3
Method: as §1, §5

EGFR signaling pathway = assay: Western blot of EGFR signaling (pERK, pEGFR) in EGF-stimulated cells; type: cell-based; details: EGF-stimulated cells (HCC827 per Fig. 3), 4 h drug incubation, Western blotting

Row | stable in minimal essential medium [1] | SMILES | IC50 (A431) | IC50 (H1975) | IC50 (Calu3) | also measured
1 | at least 24 h | CC(=O)C=C(C)[O-].CC(=O)C=C(C)[O-].F[P-](F)(F)(F)(F)F.NCCNc1ccc2ncnc(Nc3cccc(Br)c3)c2c1.[Co+3] [Compound 1a, Bis(2,4-pentanedionato) N^6-(2-aminoethyl)-N^4-(3-bromophenyl) quinazoline-4,6-diamine cobalt(III) hexafluorophosphate] |  |  |  | anticancer activity, hypoxia (cell viability; hypoxia (1% O2)): significantly increased; anticancer activity (cell viability), normoxic conditions (cell viability; normoxic conditions, up to the highest tested concentration of 25 µM): widely inactive; EGFR inhibitory potential, hypoxia (EGFR; hypoxia): potent activity similar to the metal-free ligand L2; EGFR inhibitory potential, normoxic conditions (EGFR; normoxic conditions): distinctly reduced
2 | at least 24 h | CC(=O)C=C(C)[O-].CC(=O)C=C(C)[O-].NCCNc1ccc2ncnc(Nc3cccc(Br)c3)c2c1.[Cl-].[Co+3] [Compound 1b, Bis(2,4-pentanedionato) N^6-(2-aminoethyl)-N^4-(3-bromophenyl) quinazoline-4,6-diamine cobalt(III) chloride] |  |  |  | tumor growth of A431 xenografts (A431 xenografts): potently inhibited tumor growth; tumor growth of Calu3 xenografts (Calu3 xenografts): induced distinct tumor regression
3 |  | Brc1cccc(Nc2ncnc3ccc(N=Cc4ccccn4)cc23)c1 [Compound L1, N^4-(3-bromophenyl)-N^6-(pyridin-2-ylmethylene) quinazoline-4,6-diamine] | > 25 µM | 20.4 ± 3.8 µM | 3.5 ± 0.08 µM | 
4 |  | Cl.Cl.NCCNc1ccc2ncnc(Nc3cccc(Br)c3)c2c1 [Compound L2, N^6-(2-aminoethyl)-N^4-(3-bromophenyl)quinazoline-4,6-diamine dihydrochloride] | 9.15 ± 0.47 µM | 15.5 ± 2.18 µM | 2 ± 0.52 µM | inhibitory effects on ERK and EGFR phosphorylation levels (EGFR signaling pathway): most potent EGFR inhibitor with activity similar to erlotinib
5 |  | C#Cc1cccc(Nc2ncnc3cc(OCCOC)c(OCCOC)cc23)c1 [erlotinib, reference compound] |  | > 25 µM | 0.74 ± 0.02 µM | 
